Laboratory results reported in patent publication US20240109881A1, “Heteroaryl Compounds as Ligand Directed Degraders of IRAK4” (Bristol-Myers Squibb Company, priority 2022, published 2024).

Biological target: T1, IRAK4 (Homo sapiens, UniProt Q9NWZ3)
T1 construct: endogenous in cells; host or cells: THP-1 cells
T1 sequence (Q9NWZ3 1-460): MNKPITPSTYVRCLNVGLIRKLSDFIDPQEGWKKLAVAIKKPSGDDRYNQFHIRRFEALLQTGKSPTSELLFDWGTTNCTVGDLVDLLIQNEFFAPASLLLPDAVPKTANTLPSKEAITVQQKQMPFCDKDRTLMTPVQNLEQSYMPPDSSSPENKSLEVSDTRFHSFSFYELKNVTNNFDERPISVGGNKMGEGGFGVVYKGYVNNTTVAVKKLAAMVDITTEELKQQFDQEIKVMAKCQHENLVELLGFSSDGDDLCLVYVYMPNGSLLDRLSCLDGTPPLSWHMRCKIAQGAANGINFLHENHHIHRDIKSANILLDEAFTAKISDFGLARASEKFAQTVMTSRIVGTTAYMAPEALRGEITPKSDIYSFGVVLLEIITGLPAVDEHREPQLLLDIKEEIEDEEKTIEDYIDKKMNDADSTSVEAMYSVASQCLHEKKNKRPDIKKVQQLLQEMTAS
Assay: LVL THP1 HTRF (THP1 Homogeneous Time Resolved Fluorescence)
Assay type: cell-based
Conditions: THP1 cells, 18 h incubation with compound; for DC50: read-out: LVL THP1 HTRF EC50
Method: Cell culture media was prepared in a tissue culture hood in a sterile environment by adding 10% FBS and 1% Penicillin Streptomycin to 500 mL no phenol red RPMI 1640 media. The media was filtered through a Nalgene Bottle Top Filter and stored at 4° C.
For Homogenous Time Resolved Fluorescence (HTRF) assays, a Cisbio HTRF kit was used, which included: Lysis Buffer #1 4×, Blocking Reagent #3 100×, 20× Antibody 1 (Anti-IRAK4 d2), 20× Antibody 2 (Anti-IRAK4 k), and Detection Buffer.
The THP1 plates were prepared by the following method. For each dosing plate, a duplicate for CTG assay was prepared. Two THP-1 T-175 flasks could be used to plate one 384 well plate. The cells were collected from two T-175 flasks into 200 mL centrifuge tubes and spun down at 1200 rpm for 10 min. The supernatant was removed completely and cells were resuspended in 7.5 mL cell culture media. To 5 μL of the cell suspension was added 25 μL of media and 30 μL of Trypan Blue stain. The cells were counted using countess (automated cell counter, Thermo Fisher Scientific) twice and the viability and live cell count was recorded. The actual cell count was […] the live cell count. Based on the count, a cell suspension was prepared in colorless RPMI media for a final concentration of 7.5e6 cells/mL. Using Standard cassette multidrop combi, 20 μL of the 7.5e6 cells/mL cell stock was added to entire 384 well plate but for top half of column 1 (negative control) The multidrop combi was always primed to achieve a steady flow and washed after use with 20 mL de-ionized water followed by 20 mL alcohol. The cells were incubated in 5% CO2 incubator at 37° C.
Dosing was conducted using the following method. To dose assay plates and CTG plate was added 20 nL of compounds in DMSO using Echo (Beckman Coulter), and the plates were incubated at 37° C. for 18 h. The compound plates were spun at 1200 rpm for 1 min before dosing. The compound plate was sealed and properly stored during incubation.
After dosing, an HTRF assay was conducted using the following method. The treatment plates (IRAK4_HTRF) were centrifuged at 600 g for 10 min. Using CyBio Felix, Automated liquid handler (Analytikjena), 13 μL cell culture media was removed. To all columns, 7.5 μL lysis buffer was added, and an additional 7.5 μL of lysis buffer was added to column 1(top half, negative control). The plate was incubated on a shaker at room temperature for 2 h. The plate was spun down at 600 g for 5 min. Custom 20×IRAK4 Antibody obtained from CISBIO Anti-IRAK4-d2 (acceptor Ab) and Anti-IRAK4-K (donor Ab) were diluted to 1× antibody mix Using a multichannel repeater, 4 μL of 1× antibody mix was added to each wellThe plate was spun down at 600 g for 5 min and incubated in the dark at room temperature for 18 h The next day (after 18 hrs), HTRF assay plate was spun down at 600 g for 5 min and read at 665/615 nm using a Envision plate reader.

SMILES	LVL THP1 HTRF YMIN [%]	DC50 [nM]
CC1CN(CC[C@H]2CC[C@H](c3cn(-c4cnc(-n5ncc6cc(C#N)cnc65)cc4N[C@H](C)C#N)nn3)CC2)CCC1c1ccc([C@@]2(F)CCC(=O)NC2=O)cc1 (single isomer, unassigned) [P-332]	20.7	261
CC1CN(CC[C@H]2CC[C@H](c3cn(-c4cnc(-n5ncc6cc(C#N)cnc65)cc4N[C@H](C)C#N)nn3)CC2)CCC1c1ccc([C@@]2(F)CCC(=O)NC2=O)cc1 (single isomer, unassigned) [P-333]	26.8	334
C[C@H](C#N)Nc1cc(-n2ncc3cc(C#N)cnc32)ncc1-n1cc([C@H]2CC[C@H](CCN3CCC(c4ccc([C@@]5(F)CCC(=O)NC5=O)cc4)CC3)CC2)nn1 (single isomer, unassigned) [P-338]	61.2	501
C[C@H](C#N)Nc1cc(-n2ncc3cc(C#N)cnc32)ncc1-n1cc([C@H]2CC[C@](O)(CCN3CCN(c4ccc(N5CCC(=O)NC5=O)cc4)CC3)CC2)nn1 (single isomer, unassigned) [P-373]	72.5	1000
C[C@H](C#N)Nc1cc(-n2ncc3cc(C#N)cnc32)ncc1-n1cc([C@H]2CC[C@H](CCN3CCC[C@@H]4[C@H]3CCCN4c3ccc([C@@]4(C)CCC(=O)NC4=O)cc3)CC2)nn1 (single isomer, unassigned) [P-414]	71.4	2350
C[C@H](C#N)Nc1cc(-n2ncc3cc(C#N)cnc32)ncc1-n1cc([C@H]2CC[C@H](CCN3CC[C@H]4[C@@H]3CCN4c3ccc([C@@]4(C)CCC(=O)NC4=O)nc3)CC2)nn1 (single isomer, unassigned) [P-415]	37.5	192
C[C@H](C#N)Nc1cc(-n2ncc3cc(C#N)cnc32)ncc1-n1cc([C@H]2CC[C@H](CCN3CCC(c4ccc([C@@]5(C)CCC(=O)NC5=O)cc4)C(F)(F)C3)CC2)nn1 (single isomer, unassigned) [P-417]	1.8	51.4
C[C@H](C#N)Nc1cc(-n2ncc3cc(C#N)cnc32)ncc1-n1cc([C@H]2CC[C@](O)(CCN3CCN(c4ccc([C@@]5(C)CCC(=O)NC5=O)cn4)CC3)CC2)nn1 (single isomer, unassigned) [P-426]	41.0	1000
C[C@H](C#N)Nc1cc(-n2ncc3cc(C#N)cnc32)ncc1C(=O)N[C@H]1CC[C@H](CCN2CC[C@H]3[C@@H]2CCN3c2ccc([C@@]3(C)CCC(=O)NC3=O)cc2)CC1 (single isomer, unassigned) [P-427]	1.8	40.4
C[C@H](C#N)Nc1cc(-n2ncc3cc(C#N)cnc32)ncc1-n1cc([C@H]2CC[C@](O)(CCN3CCN(c4ccc(N5CCC(=O)NC5=O)cc4)CC3)CC2)nn1 (single isomer, unassigned) [P-429]	5.4	59.4
C[C@H](C#N)Nc1cc(-n2ncc3cc(C#N)cnc32)ncc1-n1cc([C@H]2CC[C@H](CCN3CC[C@H]4[C@@H]3CCN4c3ccc([C@@]4(C)CCC(=O)NC4=O)cn3)CC2)nn1 (single isomer, unassigned) [P-435]	52.3	123

The next compounds have a lower DC50 than those just listed; values first:

LVL THP1 HTRF YMIN [%]	DC50 [nM]	SMILES
2.5	2.5	C[C@H](C#N)Nc1cc(-n2ncc3cc(C#N)cnc32)ncc1-n1cc(C2CCC(CCN3CC[C@H]4[C@@H]3CCN4c3ccc(N4CCC(=O)NC4=O)cc3)CC2)nn1 (single isomer, unassigned) [P-328]
−2.2	1.8	CC1CN(CC[C@H]2CC[C@H](c3cn(-c4cnc(-n5ncc6cc(C#N)cnc65)cc4N[C@H](C)C#N)nn3)CC2)CCC1c1ccc([C@@]2(F)CCC(=O)NC2=O)cc1 (single isomer, unassigned) [P-331]
2.7	3.8	C[C@H](C#N)Nc1cc(-n2ncc3cc(C#N)cnc32)ncc1-n1cc([C@H]2CC[C@H](CCN3CCC(c4ccc([C@@]5(F)CCC(=O)NC5=O)cc4)CC3)CC2)nn1 (single isomer, unassigned) [P-337]
−1.8	2.8	CC1CN(CC[C@H]2CC[C@H](c3cn(-c4cnc(-n5ncc6cc(C#N)cnc65)cc4N[C@H](C)C#N)nn3)CC2)CCC1c1ccc([C@@]2(F)CCC(=O)NC2=O)cc1 (single isomer, unassigned) [P-390]
7.8	27.9	C[C@H](C#N)Nc1cc(-n2ncc3cc(C#N)cnc32)ncc1-n1cc([C@H]2CC[C@H](CCN3CCC(c4ccc(N5CCC(=O)NC5=O)cc4)C(F)C3)CC2)nn1 (single isomer, unassigned) [P-400]
1.8	14.9	C[C@H](C#N)Nc1cc(-n2ncc3cc(C#N)cnc32)ncc1-n1cc([C@H]2CC[C@H](CCN3CC[C@H]4[C@@H]3CCN4c3ccc([C@@]4(C)CCC(=O)NC4=O)nc3)CC2)nn1 (single isomer, unassigned) [P-418]
−0.8	31.6	C[C@H](C#N)Nc1cc(-n2ncc3cc(C#N)cnc32)ncc1-n1cc([C@H]2CC[C@](O)(CCN3CCN(c4ccc([C@@]5(C)CCC(=O)NC5=O)nc4)CC3)CC2)nn1 (single isomer, unassigned) [P-419]
1.7	26.2	C[C@H](C#N)Nc1cc(-n2ncc3cc(C#N)cnc32)ncc1-n1cc([C@H]2CC[C@H](CCN3CCC(c4ccc(N5CCC(=O)NC5=O)cc4)C(F)(F)C3)CC2)nn1 (single isomer, unassigned) [P-420]
5.3	1.9	C[C@H](C#N)Nc1cc(-n2ncc3cc(C#N)cnc32)ncc1-n1cc([C@H]2CC[C@H](CCN3CCC(F)(c4ccc([C@@]5(C)CCC(=O)NC5=O)cc4)CC3)CC2)nn1 (single isomer, unassigned) [P-424]
−0.4	5.5	C[C@H](C#N)Nc1cc(-n2ncc3cc(C#N)cnc32)ncc1C(=O)N[C@H]1CC[C@H](CCN2CCC(c3ccc([C@@]4(F)CCC(=O)NC4=O)cc3)CC2)CC1 (single isomer, unassigned) [P-430]
0.6	4.6	C[C@H](C#N)Nc1cc(-n2ncc3cc(C#N)c(N)nc32)ncc1-n1cc([C@H]2CC[C@H](CCN3CC[C@H]4[C@@H]3CCN4c3ccc([C@@]4(C)CCC(=O)NC4=O)cc3)CC2)nn1 (single isomer, unassigned) [P-453]
1.1	13.6	C[C@H](C#N)Nc1cc(-n2ncc3cc(C#N)cnc32)ncc1-n1cc([C@H]2CC[C@H](CCN3CC[C@H]4[C@@H]3CCN4c3ccc([C@@]4(C)CCC(=O)NC4=O)cc3)CC2)nn1 (single isomer, unassigned) [P-454]
5.4	3.7	C[C@H](C#N)Nc1cc(-n2ncc3cc(C#N)cnc32)ncc1-n1cc([C@H]2CC[C@H](CCN3CC[C@H]4[C@@H]3CCN4c3ccc(N4CCC(=O)NC4=O)c(F)c3)CC2)nn1 (single isomer, unassigned) [P-461]
3.3	6.1	C[C@H](C#N)Nc1cc(-n2ncc3cc(C#N)cnc32)ncc1-n1cc([C@H]2CC[C@H](CCN3CC[C@H]4[C@@H]3CCN4c3ccc([C@@]4(C)CCC(=O)NC4=O)cc3)CC2)nn1 (single isomer, unassigned) [P-462]
